This test concerns the target P. falciparum vacuolar H+-translocating pyrophosphatase (PfPPase-VP1) (Plasmodium falciparum, UniProt Q8IKR1). Description: PfPPase-VP1 inhibition assay on membrane fractions from baculovirus-infected insect cells. It is filed as biochemical. The conditions noted are these: PfPPase-VP1 in the membrane. As to the method:
We then addressed the potential of 12k and 12l for translation to pathogenic proteins. These analogues differ by replacement of two methyl groups by two tert-butyl groups. In order to do so, we expressed the PfPPase-VP1 gene (PF3D7_1456800) in baculovirus-infected insect cells and performed the inhibition assay on the PfPPase-VP1 in the membrane (the method and further analysis will be described in more detail elsewhere).
The inhibition assay was measured in 96 well plate assay as previously reported.5,6 Briefly, 1 µL of purified TmPPase (13 mg/mL) was reactivated in 99 µL of reactivation buffer (20 mM 2-(N-morpholino) ethanesulfonic acid (MES) pH 6.5, 3.5% (v/v) glycerol, 2 mM dithiothreitol (DTT), 4.5% dodecyl maltoside (DDM) and 12 mg/mL L-α-phosphatidylcholine from soybean) and incubated at 55 °C for 15 min. For the assay, to each tube strips, 0.2 µL of the reactivated enzyme was added to 14.8 µL of reaction buffer (200 mM Tris-Cl pH 8.0, 8.0 mM MgCl2, 333 mM KCl, and 67 mM NaCl) and 25 µL of inhibitor. The reaction mixtures were sealed with an adhesive sealing sheet (Thermo Scientific) and incubated at 71 °C for 5 min. […] 180 µL of each reaction mixtures was then transferred into a clear 96 well polystyrene microplate and the absorbance was measured at 860 nm using a microplate spectrophotometer (MultiSkan Go, Thermo Scientific). […]

Chain of P. falciparum vacuolar H+-translocating pyrophosphatase (PfPPase-VP1) (Q8IKR1 entry or part of it): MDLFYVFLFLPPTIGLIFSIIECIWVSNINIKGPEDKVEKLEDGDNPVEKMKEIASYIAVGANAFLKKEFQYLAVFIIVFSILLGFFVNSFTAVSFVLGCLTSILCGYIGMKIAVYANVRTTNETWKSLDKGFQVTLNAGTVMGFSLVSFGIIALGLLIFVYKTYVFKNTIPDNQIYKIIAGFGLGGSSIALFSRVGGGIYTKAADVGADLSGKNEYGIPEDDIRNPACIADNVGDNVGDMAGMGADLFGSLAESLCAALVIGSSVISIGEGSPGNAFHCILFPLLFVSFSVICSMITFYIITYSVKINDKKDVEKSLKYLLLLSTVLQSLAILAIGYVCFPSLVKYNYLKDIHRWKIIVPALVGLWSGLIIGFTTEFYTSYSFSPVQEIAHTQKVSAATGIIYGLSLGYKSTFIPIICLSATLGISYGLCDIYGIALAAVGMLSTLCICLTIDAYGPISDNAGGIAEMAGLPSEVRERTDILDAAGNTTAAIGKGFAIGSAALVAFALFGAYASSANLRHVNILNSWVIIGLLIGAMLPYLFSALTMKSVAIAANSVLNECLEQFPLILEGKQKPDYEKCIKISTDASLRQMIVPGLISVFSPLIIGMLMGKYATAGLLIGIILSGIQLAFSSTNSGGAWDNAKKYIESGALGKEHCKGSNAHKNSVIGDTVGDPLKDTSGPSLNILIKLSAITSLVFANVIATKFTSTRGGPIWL

`CC(C)(C)c1cc(-c2cc(C(=O)Oc3ccccc3Br)no2)cc(C(C)(C)C)c1` [Compound 12l]: the “IC50, PfPPase-VP1 activity” value is “did not show inhibition at the tested concentrations”.

The record behind these values is article PMC7153278, “Discovery of Membrane-Bound Pyrophosphatase Inhibitors Derived from an Isoxazole Fragment” (ACS Medicinal Chemistry Letters, 2020).
